Structures can show the parent of a compound that is named as a salt. One block for each molecule: values may come before it.
Columns and labels:
CCC-ESF-1 cells = experiment: Cellular toxicity test (CCK-8); format: cell-based, Human; details: concentration equivalent to 5 ug/mL TPTC
Method: (§1) Cellular toxicity tests. […] After 12 h, the cultured medium was removed, and washed with PBS. One hundred microliters of fresh medium containing 10 μL CCK-8 (Sigma) was added to each well. After 2 h incubation at 37° C., the absorbance at 450 nm was measured using a microplate reader.

HeLa cells = experiment: Cellular toxicity test (CCK-8); format: cell-based, Human; details: concentration equivalent to 5 ug/mL TPTC
Method: as §1

in vivo [1] = details: BALB/c, mouse, iv
Method: We determined the pharmacokinetics of TPTC/TC-CQDs in mice bearing HeLa tumors. TPTC or TPTC/TC-CQDs were administered intravenously at a dose equivalent to 10 mg/kg TPTC, and the blood was collected at various time points. TPTC in the plasma was quantified by high performance liquid chromatography (HPLC). […] A second cohort of mice received the same treatment was subjected to characterization for biodistribution of TPTC based on TPTC fluorescence.
The same lipid composition was used in several FDA-approved liposomal formulations, including Doxil© 38. […] The blood was collected at various time points. TPTC in the plasma was quantified by high performance liquid chromatography (HPLC).

HeLa tumors = experiment: Therapeutic evaluation in mice bearing HeLa tumors; format: in vivo; details: for tumors fifteen days later: intravenous
Method: We assessed TPTC/TC-CQDs for cancer treatment using mice bearing HeLa tumors. […]
Therapeutic evaluation in tumor-bearing mice. HeLa cells were subcutaneously inoculated into female BALB/c mice. When the tumor volumes reached ˜100 mm^3, the mice were intravenously administered with, saline, TPTC or TPTC/TC-CQDs (n=5). Changes in tumor volume and body weight were monitored daily. The volume of the tumor was calculated according to the following formula: V=D×d^2/2 (where D and d are the longest and shortest diameters of tumor, respectively, measured using a vernier caliper). Relative tumor volumes were calculated as V/V0(V0 is the initial tumor volume when the treatment was started).

[2] = Toxicity evaluation in mice; format: in vivo
Method: Toxicity evaluation in mice. Female BALB/c mice were intravenously administered with TPTC (10 mg/kg, 0.05 mL per mice) or TPTC/TC-CQDs (10 mg/kg for TPTC, 0.05 mL per mice) (n=5). Mice treated with saline were used as controls. At selected time points, blood samples were collected in heparinized microhematocrit tubes and centrifuged at a speed of 3000 rpm for 10 min. At the end of the study, mice were euthanized. Major organs, including the heart, liver, spleen, kidney and lung were excised, fixed in formalin, and analyzed.

in vivo [3] = details: BALB/c, mouse
Method: We repeated the characterization studies using A549 tumours. Experiments were carried out according to the same procedures as described above.

LAT1 [4] = target: T1, LAT1 (Homo sapiens, UniProt Q01650); experiment: LCSM: effect of Leu, Phe, Gly or BCH pre-treatment on uptake of LAAM TC-CQDs; format: cell-based; details: HeLa cells, excess of the agent prior to adding LAAM TC-CQDs
T1 construct: we treated HeLa cells with an excess of leucine (Leu), phenylalanine (Phe), or glycine (Gly) prior to adding LAAM TC-CQDs; endogenous in cells; host or cells: HeLa (also A549, PANC-1, MCF-7, MDA-MB-231, MDA-MB-231 SP in the flow cytometry)
T1 sequence (Q01650 whole entry): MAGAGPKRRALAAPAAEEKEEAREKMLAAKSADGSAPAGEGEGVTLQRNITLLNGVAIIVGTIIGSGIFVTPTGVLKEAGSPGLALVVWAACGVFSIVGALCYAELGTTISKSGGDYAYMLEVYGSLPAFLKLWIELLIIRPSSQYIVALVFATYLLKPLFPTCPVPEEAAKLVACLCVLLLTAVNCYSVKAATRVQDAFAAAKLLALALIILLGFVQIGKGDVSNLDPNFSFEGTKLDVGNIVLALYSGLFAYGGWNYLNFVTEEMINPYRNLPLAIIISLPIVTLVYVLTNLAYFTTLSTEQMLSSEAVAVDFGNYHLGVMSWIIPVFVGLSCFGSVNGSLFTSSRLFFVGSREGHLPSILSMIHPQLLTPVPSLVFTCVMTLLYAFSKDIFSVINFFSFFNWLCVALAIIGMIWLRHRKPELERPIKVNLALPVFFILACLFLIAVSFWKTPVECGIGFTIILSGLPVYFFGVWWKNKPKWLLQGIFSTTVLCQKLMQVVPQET
T1 sequence (P08195 102-630 partner): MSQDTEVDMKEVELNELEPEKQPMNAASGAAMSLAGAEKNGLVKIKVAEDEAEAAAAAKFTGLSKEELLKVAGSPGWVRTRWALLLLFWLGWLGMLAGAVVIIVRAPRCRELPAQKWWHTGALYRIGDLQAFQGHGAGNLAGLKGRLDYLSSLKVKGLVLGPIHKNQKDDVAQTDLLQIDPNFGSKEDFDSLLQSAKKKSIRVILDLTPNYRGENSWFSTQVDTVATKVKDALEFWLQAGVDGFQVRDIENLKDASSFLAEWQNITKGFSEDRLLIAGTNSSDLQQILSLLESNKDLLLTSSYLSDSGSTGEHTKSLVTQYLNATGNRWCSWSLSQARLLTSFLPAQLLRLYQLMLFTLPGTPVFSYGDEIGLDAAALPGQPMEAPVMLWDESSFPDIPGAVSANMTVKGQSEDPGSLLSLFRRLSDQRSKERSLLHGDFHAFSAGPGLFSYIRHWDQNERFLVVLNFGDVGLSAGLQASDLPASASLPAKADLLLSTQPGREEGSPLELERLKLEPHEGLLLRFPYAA
Method: (§2) To investigate the mechanism that accounts for the cellular uptake of LAAM TC-CQDs, we treated HeLa cells with an excess of leucine (Leu), phenylalanine (Phe), or glycine (Gly) prior to adding LAAM TC-CQDs. Except Gly, both Leu and Phe are known to be high-affinity substrates to LAT1^27. […] This hypothetical mechanism is supported by several lines of evidence.
Confocal laser scanning microscope imaging. […] After 8 h, cells were washed with PBS twice, fixed with 4% polyformaldehyde for 30 min at room temperature, followed by addition of DAPI for cell nuclei staining. Finally, the slides were washed three times, fixed, sealed with cover glasses, and imaged with excitation/emission: 561/700 using a confocal laser scanning microscopy (Leica TCS-SP8, Germany). To determine the effects of Leu, Phe, Gly or BCH on CQD uptake, HeLa cells were placed and treated with Leu, Phe, Gly or BCH. Four hours later, LAAM TC-CQDs were added to cells. After an additional 8 h, the cells were washed, fixed, and imaged.

LAT1 [5] = target: T1, LAT1; experiment: Flow cytometry: uptake rate of LAAM TC-CQDs after BCH pre-treatment; format: cell-based; details: across HeLa, A549, PANC-1, MCF-7, MDA-MB-231, MDA-MB-231 SP cells
Excerpt: as §2
Flow cytometry. MDA-MB-231 SP cells were sorted according to our previously reported methods^22. Briefly, cells harvested at about 85% confluence were resuspended in RPMI-1640 supplemented with 2% fetal bovine serum (FBS) at a density of 1×10^6 cells/mL and incubated with Hoechst 33342 at a concentration of 5 μg/mL at 37° C. After 90 min, the cells were suspended in cold PBS at a concentration of 1×10^6 cells/mL, filtered through a 40 μm cell strainer to remove cell aggregates, stained with 1 μg/mL propidium iodide (PI), and analyzed and sorted using a FACSDiva (Becton Dickinson, USA). […] The cells were washed 3 times with cold PBS, resuspended in […] of cold PBS, and analyzed by a FACScan flow cytometer (BD, Ann Arbor, Mich.). […] After 12 h, the cells were washed with fresh medium, trypsinized, resuspended in PBS with 0.5% FBS, and analyzed using a BD FACSCalibur (BD Biosciences, USA). Data were analyzed using FlowJo 7.6.

[6] = 10 mg/kg TPTC (or equivalent) at days 1, 4, 8, and 12

SMILES: CC[C@@]1(O)C(=O)OCc2c1cc1n(c2=O)Cc2cc3c(CN(C)C)c(O)ccc3nc2-1 [TPTC, topotecan hydrochloride]
toxicity to non-cancerous CCC-ESF-1 cells (CCC-ESF-1 cells): inhibited both cells at a comparable efficiency
toxicity to HeLa cells (HeLa cells): inhibited both cells at a comparable efficiency
half-life (in vivo [1]; 2 mg/kg): 5.4 min
half-life (in vivo [1]; 10 mg/kg): 5 min
median survival (HeLa tumors; 2 mg/kg TPTC (or equivalent)): 30 days
survival (HeLa tumors; [6]): 40 days
tumors fifteen days later (HeLa tumors; 2 mg/kg TPTC (or equivalent) at days 1, 4, 8, and 12): continuously grew
tumors fifteen days later (HeLa tumors; [6]): continuously grew
H&E analysis of major organs [2]: obvious myocardial fiber rupture, diffuse ballooning degeneration of hepatocytes, pulmonary hyperemia, and focal tubular necrosis
body weight ([2]; throughout the study): weight loss was observed
half-life (in vivo [3]): 5.9 min

SMILES: NC1(C(=O)O)CC2CCC1C2 (stereo not shown) [BCH, 2-aminobicyclo-(2,2,1)-heptane-2-carboxylic acid]
effect of pre-treatment on uptake of LAAM TC-CQDs (LAT1 [4]): dramatically reduces
cellular uptake rate of LAAM TC-CQDs after pre-treatment with BCH (LAT1 [5]): ~20%

SMILES: NCC(=O)O [Gly, glycine]
effect of pre-treatment on uptake of LAAM TC-CQDs (LAT1 [4]): not

The remaining lines, values ahead:

effect of pre-treatment on uptake of LAAM TC-CQDs (LAT1 [4]): significantly inhibited
SMILES: N[C@@H](Cc1ccccc1)C(=O)O [Phe, phenylalanine]

effect of pre-treatment on uptake of LAAM TC-CQDs (LAT1 [4]): significantly inhibited
SMILES: CC(C)C[C@H](N)C(=O)O [Leu, leucine]

Reference: patent publication US20220401586A1, “CARBON QUANTUM DOTS AND USES THEREOF” (CNANO MEDICINE CORP., priority 2019, published 2022)
